# Measurements as given in patent US7799812B2, “Reverse isoxazoles” (Novartis AG, priority 2006, dated 2010).
# Molecular target: T1, human EDG-1 (S1P1) (Homo sapiens, UniProt P21453)
# T1 construct: c-myc (N); expressed in transfected cells
# Experiment: S1P1 (EDG-1) GTP [γ-35S] binding assay, membranes from CHO cells
# Type: biochemical
# Experimental: A. In vitro: GPCR Activation Assay Measuring GTP [γ-^35S] Binding to Membranes Prepared from CHO Cells Expressing Human EDG Receptors
# S1P1 (EDG-1) GTP [γ-^35S] binding assay: Homogenized membranes are prepared from CHO cell clones stably expressing a human EDG-1 N-terminal c-myc tag. Cells are grown in suspension in two 850 cm^2 roller bottles for three or fours days before harvesting. The cells are centrifuged down, washed once with cold PBS, and resuspended in ≦20 ml of Buffer A (20 mM HEPES, pH 7.4, 10 mM EDTA, EDTA-free complete protease inhibitor cocktail [1 tablet/25 ml]). The cell suspension is homogenized on ice, using a Polytron homogenizer at 30000 rpm at three intervals of 15 seconds each. The homogenate is first centrifuged at 2000 rpm on a tabletop low speed centrifuge for 10 minutes. The supernatant, after passing through a cell strainer, is then re-centrifuged at 50,000×g for 25 minutes at 4° C. The pellet is resuspended into buffer B (15% glycerol, 20 mM HEPES, pH 7.4, 0.1 mM EDTA, EDTA-free complete protease inhibitor cocktail [1 tablet/10 ml]). Protein concentration of the preparation is determined using the BCA Protein Assay kit (Pierce) using BSA as standard. The membranes are aliquoted and kept frozen at −80° C.
# Solutions of test compounds ranging from 10 mM to 0.01 nM are prepared in DMSO. S1P is diluted in 4% BSA solution as positive controls. The desired amount of membrane preparation is diluted with ice-cold assay buffer (20 mM HEPES, pH 7.4, 100 mM NaCl, 10 mM MgCl2, 0.1% Fatty acid-free BSA, 5 μM GDP) and vortexed well. 2 μl or less of compound is distributed into each well of a round-bottom 96-well polystyrene assay plate, followed by addition of 100 μl of diluted membranes (3-10 μg/well) and kept on ice until the addition of hot GTPγS. [^35S]-GTPγS is diluted 1:1000 (v/v) with cold assay buffer and 100 μl is added into each well. The reaction is carried out at room temperature for 90 minutes before the membranes are harvested onto Perkin-Elmer Unifilter® GF/B-96 filter plate using a Packard Filtermate Harvester. […]
# T1 sequence (P21453 whole entry): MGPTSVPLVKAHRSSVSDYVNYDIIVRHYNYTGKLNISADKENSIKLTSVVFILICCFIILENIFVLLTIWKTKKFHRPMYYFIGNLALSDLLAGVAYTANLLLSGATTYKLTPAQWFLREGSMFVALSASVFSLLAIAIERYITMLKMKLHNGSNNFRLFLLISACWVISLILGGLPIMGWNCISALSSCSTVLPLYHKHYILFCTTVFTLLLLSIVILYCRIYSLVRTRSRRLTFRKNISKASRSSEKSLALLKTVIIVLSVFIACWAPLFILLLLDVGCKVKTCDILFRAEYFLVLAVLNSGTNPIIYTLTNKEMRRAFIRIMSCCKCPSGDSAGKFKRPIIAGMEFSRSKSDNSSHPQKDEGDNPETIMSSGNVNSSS
row,Structure (SMILES),EC50
1,"O=C(O)CCNS(=O)(=O)c1ccc(-c2nc(-c3ccc(-c4ccccc4)c(C(F)(F)F)c3)no2)cc1 [Example 4, 3-{4-[3-(2-Trifluoromethyl-biphenyl-4-yl)-[1,2,4]oxadiazol-5-yl]-benzene-sulfonylamino}-propionic acid]",< 1000 nM
2,NS(=O)(=O)c1ccc(-c2nc(-c3ccc(-c4ccccc4)c(C(F)(F)F)c3)no2)cc1 [Example 13],< 1000 nM
3,O=C(O)CCC(=O)Nc1ccc(-c2nc(-c3ccc(C4CCCCC4)c(C(F)(F)F)c3)no2)cc1 [Example 21],< 1000 nM
